For this test, the system named is bloodstream form T. brucei Lister 427. The experiment in a line: ATP–bioluminescence-based bloodstream form T. brucei cell viability assay. The following applies: Trypanosoma brucei, 48 h, read-out: Tb427 EC50.

The values that follow come from publication PMC5965259 (Journal of medicinal chemistry, 2018).

Bounds are passed on as bounds.

What is called EC50 is the concentration that produces a half-maximal response.

For the compound `CCc1cc(Nc2cc(Cl)cc(Cl)c2)nc(N)n1` [Compound 9], the EC50 amounted to 4.7 µM. In the case of `CC(C)c1cc(Nc2cc(Cl)cc(Cl)c2)nc(N)n1` [Compound 10], the EC50 was found to be 4.7 µM. As for `Nc1nc(Nc2cc(Cl)cc(Cl)c2)cc(-c2ccccc2)n1` [Compound 11], the EC50 stood at 7.2 µM. As for `Nc1nc(Nc2cc(Cl)cc(Cl)c2)cc(N2CCOCC2)n1` [Compound 12], the EC50 amounted to 13 µM.

For the compound `Nc1nc(Nc2cc(Cl)cc(Cl)c2)cc(C(F)(F)F)n1` [Compound 14], the EC50 is 10 µM. On to `Nc1nc2c(c(Nc3cc(Cl)cc(Cl)c3)n1)CCC2` [Compound 15], for which the EC50 came to 19 µM.

In the case of `Cc1nc(N)nc(Nc2cc(Cl)cc(Cl)c2)c1C` [Compound 16], the 50% effective concentration (EC50) turned out to be 17 µM.

In the case of `Nc1cccc(Nc2cc(Cl)cc(Cl)c2)n1` [Compound 17], the EC50 worked out at 96 µM.

`Nc1ccnc(Nc2cc(Cl)cc(Cl)c2)c1` [Compound 18, N^2-(3,5-Dichlorophenyl)pyridine-2,4-diamine]: the EC50 amounted to 38 µM. As to `Cc1cc(N)cc(Nc2cc(Cl)cc(Cl)c2)n1` [Compound 19, N^2-(3,5-Dichlorophenyl)-6-methylpyridine-2,4-diamine], the EC50 was found to be 13 µM. Turning to `Cc1cc(Nc2cc(Cl)cc(Cl)c2)cc(N)n1` [Compound 20, N^4-(3,5-Dichlorophenyl)-6-methylpyridine-2,4-diamine], the EC50 was 2.2 µM.

As to `Nc1cnccc1Nc1cc(Cl)cc(Cl)c1` [Compound 22, N^4-(3,5-Dichlorophenyl)pyridine-3,4-diamine], the EC50 was 18 µM. Under `CNc1nc(C)cc(Nc2cc(Cl)cc(Cl)c2)n1` [Compound 24, N^4-(3,5-Dichlorophenyl)-N^2,6-dimethylpyrimidine-2,4-diamine] stands 2.7 µM; under `Cc1cc(Nc2cc(Cl)cc(Cl)c2)nc(N(C)C)n1` [Compound 25, N^4-(3,5-Dichlorophenyl)-N^2,N^2,6-trimethylpyrimidine-2,4-diamine], 14 µM. Regarding `Nc1cc(Nc2cc(Cl)cc(Cl)c2)nc(N)n1` [Compound 26, N^4-(3,5-Dichlorophenyl)pyrimidine-2,4,6-triamine], the EC50 turned out to be 14 µM. Under `Cc1nc(N)cc(Nc2cc(Cl)cc(Br)c2)n1` [Compound 27, N^4-(3-Bromo-5-chlorophenyl)-2-methylpyrimidine-4,6-diamine] stands 20 µM; under `Cc1cc(N(C)c2cc(Cl)cc(Cl)c2)nc(N)n1` [Compound 28, N^4-(3,5-Dichlorophenyl)-N^4,6-dimethylpyrimidine-2,4-diamine], 38 µM. Next, `Cc1cc(Sc2cc(Cl)cc(Cl)c2)nc(N)n1` [Compound 29, 4-((3,5-Dichlorophenyl)thio)-6-methylpyrimidin-2-amine]: more than 25 µM; `Cc1cc(NCc2cc(Cl)cc(Cl)c2)nc(N)n1` [Compound 30, N^4-(3,5-Dichlorobenzyl)-6-methylpyrimidine-2,4-diamine]: 11 µM; `Cc1cc(NCCc2cc(Cl)cc(Cl)c2)nc(N)n1` [Compound 31, N^4-(3,5-Dichlorophenethyl)-6-methylpyrimidine-2,4-diamine]: 5.7 µM. Next, `Cc1cc(Nc2cc(Cl)cc(Br)c2)nc(N)n1` [Compound 32, N^4-(3-Bromo-5-chlorophenyl)-6-methylpyrimidine-2,4-diamine]: 4.7 µM; `Cc1cc(Nc2cc(Cl)cc(C#N)c2)nc(N)n1` [Compound 33, 3-((2-Amino-6-methylpyrimidin-4-yl)amino)-5-chlorobenzonitrile]: 12 µM. As for `Cc1cc(Nc2cc(Cl)cc(C(F)(F)F)c2)nc(N)n1` [Compound 34, N^4-(3-Chloro-5-(trifluoromethyl)phenyl)-6-methylpyrimidine-2,4-diamine], the EC50 stood at 13 µM. Regarding `Cc1cc(Nc2cc(Cl)cc(-c3ccccc3)c2)nc(N)n1` [Compound 35, N^4-(5-Chloro-[1,1′-biphenyl]-3-yl)-6-methylpyrimidine-2,4-diamine], the EC50 came to 4.5 µM. Under `Cc1cc(Nc2cc(Cl)cc(S(F)(F)(F)(F)F)c2)nc(N)n1` [Compound 36, N^4-(3-Chloro-5-(pentafluoro-λ^6-sulfaneyl)phenyl)-6-methylpyrimidine-2,4-diamine] stands 13 µM; under `Cc1cc(Nc2cc(Br)cc(S(F)(F)(F)(F)F)c2)nc(N)n1` [Compound 37, N^4-(3-Bromo-5-(pentafluoro-λ^6-sulfaneyl)phenyl)-6-methylpyrimidine-2,4-diamine], 0.45 µM; under `CCc1cc(Br)cc(Nc2cc(C)nc(N)n2)c1` [Compound 38, N^4-(3-Bromo-5-ethylphenyl)-6-methylpyrimidine-2,4-diamine], 5.5 µM.

In the case of `CCOc1cc(Br)cc(Nc2cc(C)nc(N)n2)c1` [Compound 39, N^4-(3-Bromo-5-ethoxyphenyl)-6-methylpyrimidine-2,4-diamine], the EC50 came to 4.4 µM. With `Cc1cc(Nc2cc(Br)cc(OCC(F)(F)F)c2)nc(N)n1` [Compound 40, N^4-(3-Bromo-5-(2,2,2-trifluoroethoxy)phenyl)-6-methylpyrimidine-2,4-diamine], the EC50 is 4.2 µM. In the case of `C=CCOc1cc(Br)cc(Nc2cc(C)nc(N)n2)c1` [Compound 41, N^4-(3-(Allyloxy)-5-bromophenyl)-6-methylpyrimidine-2,4-diamine], the EC50 amounted to 4.4 µM. Under `CCCCOc1cc(Br)cc(Nc2cc(C)nc(N)n2)c1` [Compound 42, N^4-(3-Bromo-5-butoxyphenyl)-6-methylpyrimidine-2,4-diamine] stands 1.9 µM; under `Cc1cc(Nc2cc(Br)cc(OCC(C)C)c2)nc(N)n1` [Compound 43, N^4-(3-Bromo-5-isobutoxyphenyl)-6-methylpyrimidine-2,4-diamine], 4.4 µM.

`Cc1cc(Nc2cc(S(C)(=O)=O)cc(S(C)(=O)=O)c2)nc(N)n1` [Compound 45, N^4-(3,5-Bis(methylsulfonyl)phenyl)-6-methylpyrimidine-2,4-diamine]: the EC50 was more than 100 µM.

Regarding `Cc1cc(Nc2cc(C(F)(F)F)cc(C(F)(F)F)c2)nc(N)n1` [Compound 46, N^4-(3,5-Bis(trifluoromethyl)phenyl)-6-methylpyrimidine-2,4-diamine], the 50% effective concentration (EC50) amounted to 14 µM. As for `COc1cc(Nc2cc(C)nc(N)n2)cc(OC)c1` [Compound 47, N^4-(3,5-Dimethoxyphenyl)-6-methylpyrimidine-2,4-diamine], the EC50 came to 41 µM. Next, `Cc1cc(Nc2cc(C(=O)O)cc(C(=O)O)c2)nc(N)n1` [Compound 48, 5-((2-Amino-6-methylpyrimidin-4-yl)amino)isophthalic acid]: more than 100 µM; `COC(=O)c1cc(Nc2cc(C)nc(N)n2)cc(C(=O)OC)c1` [Compound 49, Dimethyl 5-((2-amino-6-methylpyrimidin-4-yl)amino)isophthalate]: 42 µM; `Cc1cc(Nc2cc(-c3ccccc3)cc(-c3ccccc3)c2)nc(N)n1` [Compound 50, N^4-([1,1′:3′,1″-Terphenyl]-5′-yl)-6-methylpyrimidine-2,4-diamine]: 1.5 µM. For the compound `Cc1cc(Nc2cc(C(=O)Nc3cc(Cl)cc(Cl)c3)cc(C(=O)Nc3cc(Cl)cc(Cl)c3)c2)nc(N)n1` [Compound 51, 5-((2-Amino-6-methylpyrimidin-4-yl)amino)-N^1,N^3-bis(3,5-dichlorophenyl)isophthalamide], the EC50 amounted to 2 µM. Turning to `Cc1cc(C)cc(Nc2cc(C)nc(N)n2)c1` [Compound 52, N^4-(3,5-Dimethylphenyl)-6-methylpyrimidine-2,4-diamine], the EC50 came out at 19 µM.

`Cc1cc(Nc2cc(C(C)(C)C)cc(C(C)(C)C)c2)nc(N)n1` [Compound 53, N^4-(3,5-Di-tert-butylphenyl)-6-methylpyrimidine-2,4-diamine]: the EC50 stood at 4.1 µM. Under `Cc1cc(Nc2cccc(S(F)(F)(F)(F)F)c2)nc(N)n1` [Compound 54, 6-Methyl-N^4-(3-(pentafluoro-λ^6-sulfaneyl)phenyl)pyrimidine-2,4-diamine] stands 14 µM.

As for `Cc1cc(Nc2cccc(Cl)c2)nc(N)n1` [Compound 55, N^4-(3-Chlorophenyl)-6-methylpyrimidine-2,4-diamine], the EC50 was 42 µM.

With `Cc1cc(Nc2cccc(Br)c2)nc(N)n1` [Compound 56], the EC50 came to 22 µM. As for `Cc1cc(Nc2cccc(F)c2)nc(N)n1` [Compound 57], the EC50 was more than 25 µM.

With `CSc1cccc(Nc2cc(C)nc(N)n2)c1` [Compound 58], the EC50 is more than 25 µM. As for `Cc1cc(Nc2ccccc2)nc(N)n1` [Compound 59], the EC50 is more than 25 µM. Under `Cc1cc(Nc2cc(F)cc(F)c2)nc(N)n1` [Compound 60, N^4-(3,5-Difluorophenyl)-6-methylpyrimidine-2,4-diamine] stands 70 µM; under `Cc1cc(Nc2cc(F)cc(Cl)c2)nc(N)n1` [Compound 61, N^4-(3-Chloro-5-fluorophenyl)-6-methylpyrimidine-2,4-diamine], 17 µM. For the compound `Cc1cc(Nc2cc(Br)c(F)c(Br)c2)nc(N)n1` [Compound 63, N^4-(3,5-Dibromo-4-fluorophenyl)-6-methylpyrimidine-2,4-diamine], the EC50 was found to be 4.6 µM.

Take `Cc1cc(Nc2cc(Cl)c(Cl)c(Cl)c2)nc(N)n1` [Compound 64, 6-Methyl-N^4-(3,4,5-trichlorophenyl)pyrimidine-2,4-diamine]: the EC50 is 4.5 µM. Next, `Cc1cc(Nc2cc(Cl)c(C)c(Cl)c2)nc(N)n1` [Compound 65, N^4-(3,5-Dichloro-4-methylphenyl)-6-methylpyrimidine-2,4-diamine]: 4.4 µM. On to `Cc1cc(Nc2cc(Cl)c(Oc3ccccc3)c(Cl)c2)nc(N)n1` [Compound 66, N^4-(3,5-Dichloro-4-phenoxyphenyl)-6-methylpyrimidine-2,4-diamine], for which the EC50 was determined as 1.1 µM.

Take `Cc1cc(Nc2cc(Cl)c(O)c(Cl)c2)nc(N)n1` [Compound 67, 4-((2-Amino-6-methylpyrimidin-4-yl)amino)-2,6-dichlorophenol]: the EC50 was 13 µM. Regarding `Cc1cc(Nc2cc(Cl)c(OC(F)F)c(Cl)c2)nc(N)n1` [Compound 68, N^4-(3,5-Dichloro-4-(difluoromethoxy)phenyl)-6-methylpyrimidine-2,4-diamine], the EC50 worked out at 4.5 µM.
